From patent US20230391739A1, “ARYL DERIVATIVES FOR TREATING TRPM3 MEDIATED DISORDERS” (Katholieke Universiteit Leuven, priority 2020, published 2023)

target: T1, mouse TRPM3α2 (mTRPM3) ion channel (Mus musculus, UniProt J9SQF3); assay: TRPM3 ion channel driven Ca2+ uptake, Fluo-4 AM assay, PS-stimulated (mTRPM3); assay type: cell-based; details: TRPM3 overexpressing flip-in HEK293 cells stimulated with Pregnenolone sulfate (PS) 50 μM, activity ranges A, B, C
T1 construct: expressed in transfected cells; host or cells: flip-in HEK293
T1 sequence (J9SQF3 1-1709 isoform J9SQF3-12): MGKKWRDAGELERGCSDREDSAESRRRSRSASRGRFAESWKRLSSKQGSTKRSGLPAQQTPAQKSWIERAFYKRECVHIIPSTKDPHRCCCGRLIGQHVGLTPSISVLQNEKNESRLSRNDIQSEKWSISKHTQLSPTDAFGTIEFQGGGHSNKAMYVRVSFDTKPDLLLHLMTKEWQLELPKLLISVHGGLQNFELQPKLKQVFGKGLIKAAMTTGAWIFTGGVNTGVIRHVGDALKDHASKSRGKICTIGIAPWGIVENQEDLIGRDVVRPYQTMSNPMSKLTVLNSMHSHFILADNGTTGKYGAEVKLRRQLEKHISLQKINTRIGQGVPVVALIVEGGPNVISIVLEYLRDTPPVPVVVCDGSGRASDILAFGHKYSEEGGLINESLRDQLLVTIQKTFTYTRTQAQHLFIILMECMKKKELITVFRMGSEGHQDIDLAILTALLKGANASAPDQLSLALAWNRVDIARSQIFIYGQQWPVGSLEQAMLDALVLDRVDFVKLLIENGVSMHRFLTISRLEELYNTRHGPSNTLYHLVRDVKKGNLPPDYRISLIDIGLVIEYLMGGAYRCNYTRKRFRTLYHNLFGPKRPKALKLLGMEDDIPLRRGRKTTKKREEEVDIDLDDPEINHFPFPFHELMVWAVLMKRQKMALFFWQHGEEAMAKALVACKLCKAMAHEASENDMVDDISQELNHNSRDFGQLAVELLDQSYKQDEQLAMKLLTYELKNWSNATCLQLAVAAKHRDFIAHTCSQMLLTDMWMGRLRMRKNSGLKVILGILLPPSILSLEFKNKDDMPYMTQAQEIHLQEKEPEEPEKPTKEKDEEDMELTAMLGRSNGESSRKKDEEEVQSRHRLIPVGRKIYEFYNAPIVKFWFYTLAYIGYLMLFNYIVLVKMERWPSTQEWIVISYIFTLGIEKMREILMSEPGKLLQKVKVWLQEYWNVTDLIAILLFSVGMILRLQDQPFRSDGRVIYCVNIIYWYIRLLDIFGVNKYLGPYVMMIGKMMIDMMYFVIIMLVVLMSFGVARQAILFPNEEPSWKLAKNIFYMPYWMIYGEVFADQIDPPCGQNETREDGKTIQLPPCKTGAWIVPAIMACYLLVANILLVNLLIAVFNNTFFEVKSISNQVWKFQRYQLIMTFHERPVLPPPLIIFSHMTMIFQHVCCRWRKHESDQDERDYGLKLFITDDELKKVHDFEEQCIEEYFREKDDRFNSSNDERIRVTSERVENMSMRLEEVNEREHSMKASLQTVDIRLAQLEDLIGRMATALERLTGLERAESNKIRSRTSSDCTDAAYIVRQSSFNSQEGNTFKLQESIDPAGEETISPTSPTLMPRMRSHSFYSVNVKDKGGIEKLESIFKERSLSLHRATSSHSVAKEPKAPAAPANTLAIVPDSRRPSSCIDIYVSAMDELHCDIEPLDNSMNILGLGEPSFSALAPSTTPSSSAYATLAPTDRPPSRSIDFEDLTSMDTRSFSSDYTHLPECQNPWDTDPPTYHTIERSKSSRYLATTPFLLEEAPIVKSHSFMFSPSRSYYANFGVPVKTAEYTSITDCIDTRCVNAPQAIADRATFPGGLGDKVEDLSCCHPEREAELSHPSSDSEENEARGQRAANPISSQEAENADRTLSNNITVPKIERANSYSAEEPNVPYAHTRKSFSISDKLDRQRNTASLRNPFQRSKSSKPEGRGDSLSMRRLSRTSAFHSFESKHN
Procedure, shortened: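 Ca²⁺ influx through mouse TRPM3α2, opened by 50 μM pregnenolone sulfate, was tracked with Fluo-4 AM in stably transfected HEK293 cells read directly after seeding onto pre-dispensed compound.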

`Cc1oc2ccc(OCc3ccccc3)cc2c1C(=O)NC1CC(CO)(CO)C1` [Cpd 166, 5-(benzyloxy)-N-(3,3-bis(hydroxymethyl)cyclobutyl)-2-methylbenzofuran-3-carboxamide] and `Cc1oc2ccc(OCc3ccccc3)cc2c1C(=O)N[C@H]1C[C@@H](O)C1` [Cpd 054, 5-(benzyloxy)-N-(cis-3-hydroxycyclobutyl)-2-methylbenzofuran-3-carboxamide] cannot be ordered by IC50: under 1000 nM for the first, under 1000 nM for the second.

`Cc1ccccc1COc1ccc2oc(C)c(C(=O)N[C@H]3CCNC3)c2c1` [Cpd 083, (S)-2-methyl-5-((2-methylbenzyl)oxy)-N-(pyrrolidin-3-yl)benzofuran-3-carboxamide] and `Cc1oc2ccc(OCc3ccccc3)cc2c1C(=O)N[C@H]1CCNC1` [Cpd 049, (S)-5-(benzyloxy)-2-methyl-N-(pyrrolidin-3-yl)benzofuran-3-carboxamide] cannot be ordered by IC50: under 1000 nM for the first, under 1000 nM for the second.

First: COCCCNC(=O)c1c(C)oc2ccc(OCc3ccccc3)cc12 [Cpd 056, 5-(benzyloxy)-N-(3-methoxypropyl)-2-methylbenzofuran-3-carboxamide]
Second: Cc1oc2ccc(OCc3ccccc3)cc2c1C(=O)N[C@H]1CCN(C)C1 [Cpd 079, (S)-5-(benzyloxy)-2-methyl-N-(1-methylpyrrolidin-3-yl)benzofuran-3-carboxamide]
The IC50 of the first is higher: 1000 to 20000 nM for the first, under 1000 nM for the second.

First: Cc1oc2ccc(OCc3cccc(F)c3)cc2c1C(=O)NC1CCN(C)CC1 [Cpd 168, 5-((3-fluorobenzyl)oxy)-2-methyl-N-(1-methylpiperidin-4-yl)benzofuran-3-carboxamide]
Second: Cc1oc2ccc(OCc3ccc(F)cc3)cc2c1C(=O)N[C@H]1CCNC1 [Cpd 097, (S)-5-((4-fluorobenzyl)oxy)-2-methyl-N-(pyrrolidin-3-yl)benzofuran-3-carboxamide]
The IC50 of the first is higher: 1000 to 20000 nM for the first, under 1000 nM for the second.

`Cc1oc2ccc(OCc3ccccc3)c(F)c2c1C(=O)NC1CNCC1(F)F` (single isomer, unassigned) [Cpd 298-En 1, 5-(benzyloxy)-N-(4,4-difluoropyrrolidin-3-yl)-4-fluoro-2-methylbenzofuran-3-carboxamide] and `Cc1oc2ccc(OCc3ccccc3)cc2c1C(=O)N[C@@H]1CCNC1` [Cpd 048, (R)-5-(benzyloxy)-2-methyl-N-(pyrrolidin-3-yl)benzofuran-3-carboxamide] cannot be ordered by IC50: under 1000 nM for the first, under 1000 nM for the second.

First: Cc1oc2ccc(OCc3ccccc3N3CCN(C)CC3)cc2c1C(=O)NC1CCNC1=O (stereo not drawn) [Cpd 245, 2-methyl-5-((2-(4-methylpiperazin-1-yl)benzyl)oxy)-N-(2-oxopyrrolidin-3-yl)benzofuran-3-carboxamide]
Second: Cc1oc2ccc(OCc3cccc(F)c3F)cc2c1C(=O)NC1CCNC1=O (stereo not drawn) [Cpd 171, 5-((2,3-difluorobenzyl)oxy)-2-methyl-N-(2-oxopyrrolidin-3-yl)benzofuran-3-carboxamide]
The IC50 of the first is higher: over 20000 nM for the first, under 1000 nM for the second. The second is the more potent here.

`Cc1oc2ccc(OC(C)c3ccccc3C(F)(F)F)cc2c1C(=O)N[C@H]1CCNC1` (mixture of isomers) [Cpd 220, rac-2-methyl-N—((R)-pyrrolidin-3-yl)-5-(1-(2-(trifluoromethyl)phenyl)ethoxy)benzofuran-3-carboxamide] and `CCC(Oc1ccc2oc(C)c(C(=O)N[C@H]3CCNC3)c2c1)c1ccccc1C(F)(F)F` (mixture of isomers) [Cpd 231, rac-2-methyl-N—((R)-pyrrolidin-3-yl)-5-(1-(2-(trifluoromethyl)phenyl)propoxy)benzofuran-3-carboxamide] cannot be ordered by IC50: under 1000 nM for the first, under 1000 nM for the second.

First: Cc1oc2ccc(OCc3ccccc3)cc2c1C(=O)N1CCCC(c2nc(C(C)C)no2)C1 (stereo not drawn) [Cpd 243, (5-(benzyloxy)-2-methylbenzofuran-3-yl)(3-(3-isopropyl-1,2,4-oxadiazol-5-yl)piperidin-1-yl)-methanone]
Second: Cc1oc2ccc(OCc3ccccc3)cc2c1C(=O)N[C@@H]1CCN(C(=O)OC(C)(C)C)[C@@H](C)C1 (racemic) [Cpd 251, tert-butyl trans-4-(5-(benzyloxy)-2-methylbenzofuran-3-carboxamido)-2-methylpiperidine-1-carboxylate]
The IC50 of the first is higher: over 20000 nM for the first, under 1000 nM for the second. The second is the more potent here.

Compared with `Cc1oc2ccc(OCc3ccccc3)c(F)c2c1C(=O)NC1CNCC1(F)F` (single isomer, unassigned) [Cpd 298-En 2, 5-(benzyloxy)-N-(4,4-difluoropyrrolidin-3-yl)-4-fluoro-2-methylbenzofuran-3-carboxamide], `Cc1oc2ccc(OCc3ccccc3F)cc2c1C(=O)NC1(CO)CCC1` [Cpd 324, 5-((2-fluorobenzyl)oxy)-N-(1-(hydroxymethyl)cyclobutyl)-2-methylbenzofuran-3-carboxamide] is lower in IC50: 1000 to 20000 nM for the first, under 1000 nM for the second.
